Assay results from US8653046B2, “Controlling transgene expression across the skin” (ETH Zurich, priority 2009, dated 2014).

Columns and labels:
[1] = Stability (half-live) of phloretin in culture medium, quantified via CHO-PEACE8 SEAP calibration curve; type: physicochemical
[2] = molecular target: T1, tetracycline-responsive control system (PSV40-tTA-pA; PhCMV*-1-SAMY-pA) (Escherichia coli, UniProt P04483); test: Compatibility test: tetracycline-responsive (TETOFF) SAMY production in CHO-PEACE8 (pSAM200, pBP99); type: cell-based; conditions: CHO-PEACE8 transiently transfected with tetracycline-responsive control system; Phl 50 μM, Tet 2 μg/mL; 48 h; 100 = no inducer
T1 construct: expressed in transfected cells; host or cells: CHO-PEACE8 transiently transfected with pSAM200 and pBP99
T1 sequence (P04483 whole entry, added parts left off): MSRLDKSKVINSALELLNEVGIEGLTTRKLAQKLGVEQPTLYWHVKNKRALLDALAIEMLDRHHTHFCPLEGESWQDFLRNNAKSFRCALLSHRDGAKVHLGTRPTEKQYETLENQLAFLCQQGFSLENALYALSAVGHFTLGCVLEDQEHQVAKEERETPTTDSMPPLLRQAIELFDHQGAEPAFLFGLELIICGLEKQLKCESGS
Description: To evaluate the functional compatibility of PEACE with the established tetracycline— [TETOFF; Gossen M., Bujard H., 1992, Proc Natl Acad Sci USA 89(12):5547-5551] and macrolide— [EOFF; Weber W., et al., 2002, Nat Biotechnol 20(9):901-907] responsive expression circuits CHO-PEACE8 is transiently transfected, transgenic for phloretin-responsive SEAP expression, with either the TETOFF-(pSAM200, PSV40-tTA-pA; pBP99, PhCMV*-1-SAMY-pA) or the EOFF-(PWW35, PSV40-ET1-pA; pBP100, PETR3-SAMY-pA) system set to control the Bacillus stearothermophilus-derived secreted α-amylase (SAMY) in response to tetracycline and erythromycin, respectively. SEAP and SAMY expression are scored 48 h after cultivation of the transfected populations in the presence (50 μM; 2 μg/mL) or absence of the inducer molecules (phloretin, tetracycline, erythromycin).

TtgK (TtgR-KRAB) = test: PEACE-ON: SEAP expression of CHO-K1 co-transfected with pMG28 (PSV40-TtgK-pA) and pMG27 (PTtgRON-SEAP-pA); type: cell-based; conditions: phloretin 0-50 μM, 48 h
Procedure: (C) SEAP expression profiles of CHO-K1 transiently transfected with pMG28 (PSV40-TtgK-pA) and pMG27 (PTtgRON-SEAP-pA) and cultivated for 48 h in the presence of different phloretin concentrations (0-50 μM).
By fusing TtgR to the human Kruppel-associated box-protein (KRAB) (Moosmann P., Georgiev O., Thiesen H. J., Hagmann M., Schaffner W., […], Biol Chem 378(7):669-677) a synthetic mammalian transrepressor (TtgK) is created, which is able to bind and inhibit transcription from a promoter (PTtgRON) harboring eight OTtgR-elements located 3′ of a constitutive simian virus 40 promoter (PSV40), in a phloretin-responsive manner (FIGS. 10A and B). Co-transfection of the constitutive TtgK expression vector pMG28 (PSV40-TtgK-pA) and pMG27 (PTtgRON-SEAP-pA) encoding a TtgK-specific PTtgRON-driven SEAP expression unit, results in low-level, basal SEAP expression (2.3±0.26 U/L). […]

TtgA1 (TtgR-VP16) [3] = molecular target: T2, TtgA1 (TtgR-VP16) (Pseudomonas putida, UniProt Q9AIU0); test: Autoregulated PEACE-controlled SEAP expression (pMG13) in CHO-K1; type: cell-based; set-up: expressed in transfected cells; host or cells: CHO-K1 (transient pMG11 or pMG13); also HEK-293, BHK-21, COS-7, HaCaT, HT-1080, NIH/3T3, primary human fibroblasts and keratinocytes; conditions: 50 μM phloretin, 48 h
T2 sequence (Q9AIU0 whole entry, added parts left off): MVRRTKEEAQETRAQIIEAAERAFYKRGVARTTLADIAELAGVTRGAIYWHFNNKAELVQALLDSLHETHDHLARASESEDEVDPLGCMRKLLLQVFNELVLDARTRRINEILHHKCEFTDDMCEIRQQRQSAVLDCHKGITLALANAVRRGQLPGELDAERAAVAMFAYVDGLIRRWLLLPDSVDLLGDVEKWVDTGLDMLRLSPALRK

TtgA1 (TtgR-VP16) [4] = molecular target: T2, TtgA1 (TtgR-VP16); test: Time-delayed induction of SEAP production of CHO-PEACE8 in bioreactor; type: cell-based; set-up: expressed in transfected cells; host or cells: CHO-K1 (transient pMG11 or pMG13); also HEK-293, BHK-21, COS-7, HaCaT, HT-1080, NIH/3T3, primary human fibroblasts and keratinocytes; conditions: 1 L bioreactor, start doses 60, 80 or 100 μM phloretin
Procedure: 2×10^3 cells/mL CHO-PEACE8 are cultivated in a bioreactor containing 1 L culture medium supplemented with either 60, 80 or 100 μM phloretin and SEAP production is profiled for 211 h. Owing to a defined phloretin degradation profile in culture and a precise induction threshold of 40 μM phloretin, the onset of SEAP production can be programmed to occur at a very precise point in time by defining the cell density and the phloretin concentration at production start.
Since phloretin is a non-toxic fruit component, it is an ideal product gene inducer for biopharmaceutical manufacturing scenarios, which require precise timing or dosing of difficult-to-express protein pharmaceuticals. Also, since phloretin has a determined half-live of 70 h in mammalian cell culture systems any production culture can be programmed to start product gene expression at a predefined point in time as phloretin concentrations drop below a repressing threshold level. A 1 L BioWave® bioreactor is inoculated with 2×10^3 CHO-PEACE8 and different transgene-repressing phloretin doses of 60, 80 or 100 μM. While CHO-PEACE8 grows exponentially from the start of the bioprocess, SEAP production gradually increases once phloretin is degraded to non-repressive levels (40 μM; FIG. 8). […]

O=C(CCc1ccc(O)cc1)c1c(O)cc(O)cc1O [phloretin, 3-[4-hydroxyphenyl]-1-[2,4,6-trihydroxyphenyl]-1-propanone]
functional half-live ([1]; cell-free culture medium, levels determined over 64 h): 70 h
half-live ([1]; mammalian cell culture systems): 70 h
Relative SAMY Production (%) [2]: 98.1 ± 2.8%
SEAP expression dose response (PEACE-ON) (TtgK (TtgR-KRAB)): dose-dependent induction of SEAP expression
SEAP expression (autoregulated circuit) (TtgA1 (TtgR-VP16) [3]): completely repressed
induction threshold (non-repressive phloretin level) for SEAP production (TtgA1 (TtgR-VP16) [4]): 40 µM
